Patent US8846633B2, “Method for inhibiting cancer stem cell like properties and chemoradioresistant properties of cancer or tumor cells with microRNA145” (Taipei Veterans General Hospital, priority 2011, dated 2014)

Key:
ALDH1+CD44+ HNC cells [1] = assay: HNC-TIC orthotopic xenograft, tumor size; format: in vivo, nude mice; conditions: intra-tumoral lesion injection; five weeks after treatment; vs pLV or shLuc
Protocol: (§1) We further explored the therapeutic potential of miR145 in immunocompromised mice bearing HNC-TIC xenografted tumors. Nude mice that were orthotopically pre-injected with GFP-labeled ALDH1^+CD44^+ cells in the neck region were treated with miR145-overexpressing lentivirus (pLV-miR-145) and shSOX9+shADAM17 by intra-tumoral lesion injection. […] By monitoring the treated mice for up to 12 weeks, we observed that administration of pLV-miR145 or shSOX9+shADAM17 prolonged animal survival to a greater extent than did the LNA-miR145 treatment (FIG. 10B).

ALDH1+CD44+ HNC cells [2] = assay: HNC-TIC orthotopic xenograft, survival; format: in vivo, nude mice; conditions: monitored up to 12 weeks
Protocol: as §1

ALDH1+CD44+ HNC cells [3] = assay: tumor initiation of transfected ALDH1+CD44+ HNC cells; format: in vivo; conditions: ALDH1+CD44+ cells-transplanted grafts in NOD-SCID mice
HNC cells [4] = assay: sphere formation of HNC cells; format: cell-based, human; conditions: ALDH1+CD44+ cells; data not shown
From the text: (§2) To identified the miRNA(s) involved in the regulation of TIC properties in HNC-TICs, we evaluated and compared the miRNA expression profiles in 3 pairs of HNC populations (ALDH1^+ vs. ALDH1^−, CD44^+ vs. CD44^−, and sphere-forming vs. parental) derived from patient specimens. […] To further investigate whether miR145 plays a role in the identity of HNC-TICs, two patient sample-derived HNC cell lines (HNC-1 and HNC-2) and an immortalized HNC cell line (FaDu) were subjected to quantitative RT-PCR analysis to confirm that miR145 levels were low in ALDH1^+/CD44^+ and sphere-forming HNC cells but high in ALDH1^−/CD44^− and parental cells (FIG. 8A, left and middle). To evaluate the role of miR145 on cancer initiation, we knocked down miR145 in ALDH1^−CD44^− cells derived from HNC-1, HNC-2, and FaDu cells using an miRNA SPONGE strategy (FIG. 8A, right), and subjected these cells to functional and molecular analysis. As shown in FIGS. 8B-D, the sphere formation ability and the percentage of ALDH1^+ and CD44^+ cells was all elevated upon miR145 knockdown (Spg-miR145) as compared to the control (Spg-ctrl) cells. […]

HNC cells [5] = assay: invasion of HNC cells; format: cell-based, human; conditions: ALDH1+CD44+ cells; data not shown
From the text: as §2

HNC cells [6] = assay: percentage of ALDH1+ and CD44+ HNC cells; format: cell-based, human; conditions: data not shown
From the text: as §2

shSOX9+shADAM17: lentiviral-based shRNAs for co-knockdown of SOX9 (SEQ ID NO: 28) and ADAM17 (SEQ ID NO: 29) (chain 1 GCGGAGGAAGTCGGTGAAGAA; chain 2 CCTATGTCGATGCTGAACAAA; the letters are possibly those of the target site)
tumor size (ALDH1+CD44+ HNC cells [1]): dramatically reduced
animal survival (ALDH1+CD44+ HNC cells [2]): prolonged
tumor-initiating property (ALDH1+CD44+ HNC cells [3]): effectively inhibited
sphere-forming ability (HNC cells [4]): reduction
invasive capacity (HNC cells [5]): reduced
percentages of CD44+ and ALDH1+ cells (HNC cells [6]): reduced
